Results from ChEMBL document CHEMBL3832035, “DailyMed|setid=5c133dfe-3cb5-426b-ac30-daf814e12c47 | FAMCICLOVIR - famciclovir tablet, film coated|Golden State Medical Supply, Inc”.
“And” between values parts separate entries of the source, which are not always exact repeats. Equal entries are not always repeated.

Tested on: Homo sapiens
Test: Mean pharmacokinetic parameters for Penciclovir following single dose oral or IV administration of […] to healthy adult subjects and patients with different degrees of renal impairment.
Assay type: ADME, organism-based
Set-up: dose 1000 mg, dose 250 mg, dose 125 mg, dose 500 mg, route oral
Settings: in vivo, regimen Single dose; for Excretion: tissue Urine
[1] = iv, dosed compound id 4, dosed compound name PENCICLOVIR, gender male, tissue Plasma
[2] = po, dose 500 mg, dosed compound id 40, dosed compound name FAMCICLOVIR, gender male, tissue Plasma

`Nc1nc2c(ncn2CCC(CO)CO)c(=O)[nH]1` [PENCICLOVIR] was tested, and the Excretion (iv, 5 mg/kg, dosed compound id 4, dosed compound name PENCICLOVIR, gender male, study dosing duration 24 hours) was 91%, the F (iv, at 400 mg, dosed compound id 4, dosed compound name PENCICLOVIR, gender male, route oral, tissue Plasma) was 77% and the Vd_beta (iv, dose 400 mg, dosed compound id 4, dosed compound name PENCICLOVIR, gender male, tissue Plasma) was 1.08 L/kg. It also gave a CL [1] of 36.6 L/h, a t1/2 [1] of 2 h and an Excretion (po, at 500 mg, dosed compound id 40, dosed compound name FAMCICLOVIR, gender male, study dosing duration 72 hours) of 82%. For the same molecule, the CL_renal (po, dose 500 mg, dosed compound id 40, dosed compound name FAMCICLOVIR, gender female, tissue Plasma) was 21.8 L/h, the CL_renal [2] was 28.5 L/h and 27.7 L/h and the Tmax [2] was 0.9 h. For the same molecule, the t1/2 [2] was 2.3 h, the AUC (po, dosed compound id 40, dosed compound name FAMCICLOVIR, gender female, tissue Plasma) was 11.1 µg·h/mL and the AUC (po, dosed compound id 40, dosed compound name FAMCICLOVIR, gender male, tissue Plasma) was 9.3 µg·h/mL.
